Reference: ChEMBL document CHEMBL5137112, “Semisynthetic Transformations on (+)-Boldine Reveal a 5-HT2A/2CR Antagonist” (J Nat Prod, 2022)

Assays:
[1] = molecular target: T1, 5-hydroxytryptamine receptor 2B (Homo sapiens, UniProt P41595); experiment: Antagonist activity at 5-HT2B receptor (unknown origin) incubated for 60 mins followed by 10 mins incubation in dark at room temperature by FLIPR method; type: functional
[2] = molecular target: T2, 5-hydroxytryptamine receptor 2A (Homo sapiens, UniProt P28223); experiment: Displacement of [3H]Ketanserin from 5-HT2A receptor (unknown origin) assessed as inhibition constant incubated for 90 mins by MicroBeta scintillation counting method
T2 sequence (P28223 whole entry): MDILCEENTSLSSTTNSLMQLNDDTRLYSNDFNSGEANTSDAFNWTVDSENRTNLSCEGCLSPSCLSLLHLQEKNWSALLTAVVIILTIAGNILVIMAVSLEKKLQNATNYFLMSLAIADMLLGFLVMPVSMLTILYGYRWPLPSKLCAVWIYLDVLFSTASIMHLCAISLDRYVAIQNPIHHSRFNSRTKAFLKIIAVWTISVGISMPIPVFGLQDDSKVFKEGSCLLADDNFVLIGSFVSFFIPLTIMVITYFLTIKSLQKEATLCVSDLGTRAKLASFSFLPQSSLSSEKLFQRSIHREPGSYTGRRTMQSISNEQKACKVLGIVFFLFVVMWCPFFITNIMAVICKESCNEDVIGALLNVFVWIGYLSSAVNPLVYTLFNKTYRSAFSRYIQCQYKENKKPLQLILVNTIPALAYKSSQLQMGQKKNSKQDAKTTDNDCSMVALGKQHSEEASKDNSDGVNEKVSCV

[3] = molecular target: Serotonin 2 receptors; 5-HT2a & 5-HT2c (Homo sapiens) (UniProt P28223+P28335); experiment: Selectivity ratio of Ki for 5-HT2A receptor (unknown origin) to Ki for 5-HT2C receptor (unknown origin); type: protein assay
Sequence of Serotonin 2 receptors; 5-HT2a & 5-HT2c (Homo sapiens) (P28223 whole entry, looked up, one chain of several): as the sequence (P28223 whole entry) above

[4] = molecular target: T1, 5-hydroxytryptamine receptor 2B; experiment: Displacement of [3H]LSD from 5-HT2B receptor (unknown origin) assessed as inhibition constant incubated for 90 mins by MicroBeta scintillation counting method
[5] = molecular target: T3, 5-hydroxytryptamine receptor 2C (Homo sapiens, UniProt P28335); experiment: Antagonist activity at 5-HT2C receptor (unknown origin) incubated for 60 mins followed by 10 mins incubation in dark at room temperature by FLIPR method; type: functional
T3 sequence (P28335 whole entry): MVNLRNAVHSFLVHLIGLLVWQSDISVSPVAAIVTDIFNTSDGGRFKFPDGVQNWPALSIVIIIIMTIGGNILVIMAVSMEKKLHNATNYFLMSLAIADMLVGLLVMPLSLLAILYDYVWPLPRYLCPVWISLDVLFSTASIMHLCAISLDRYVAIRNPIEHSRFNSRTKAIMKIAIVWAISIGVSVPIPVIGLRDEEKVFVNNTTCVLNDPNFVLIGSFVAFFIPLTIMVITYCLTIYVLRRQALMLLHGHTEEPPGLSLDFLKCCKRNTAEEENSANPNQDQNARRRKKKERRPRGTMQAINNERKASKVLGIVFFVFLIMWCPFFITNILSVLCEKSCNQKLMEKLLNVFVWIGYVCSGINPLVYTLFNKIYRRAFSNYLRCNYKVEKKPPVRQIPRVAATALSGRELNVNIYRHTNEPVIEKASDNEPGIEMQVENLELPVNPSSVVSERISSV

[6] = species on record: Homo sapiens; experiment: Selectivity ratio of Ki for 5-HT2A receptor (unknown origin) to Ki for 5-HT2B receptor (unknown origin)
[7] = molecular target: T3, 5-hydroxytryptamine receptor 2C; experiment: Displacement of [3H]Mesulergine from 5-HT2C receptor (unknown origin) assessed as inhibition constant incubated for 90 mins by MicroBeta scintillation counting method
[8] = species on record: Homo sapiens; experiment: Selectivity ratio of Ki for 5-HT2B receptor (unknown origin) to Ki for 5-HT2C receptor (unknown origin)
[9] = molecular target: T2, 5-hydroxytryptamine receptor 2A; experiment: Antagonist activity at 5-HT2A receptor (unknown origin) incubated for 60 mins followed by 10 mins incubation in dark at room temperature by FLIPR method; type: functional

T1 sequence (P41595 whole entry): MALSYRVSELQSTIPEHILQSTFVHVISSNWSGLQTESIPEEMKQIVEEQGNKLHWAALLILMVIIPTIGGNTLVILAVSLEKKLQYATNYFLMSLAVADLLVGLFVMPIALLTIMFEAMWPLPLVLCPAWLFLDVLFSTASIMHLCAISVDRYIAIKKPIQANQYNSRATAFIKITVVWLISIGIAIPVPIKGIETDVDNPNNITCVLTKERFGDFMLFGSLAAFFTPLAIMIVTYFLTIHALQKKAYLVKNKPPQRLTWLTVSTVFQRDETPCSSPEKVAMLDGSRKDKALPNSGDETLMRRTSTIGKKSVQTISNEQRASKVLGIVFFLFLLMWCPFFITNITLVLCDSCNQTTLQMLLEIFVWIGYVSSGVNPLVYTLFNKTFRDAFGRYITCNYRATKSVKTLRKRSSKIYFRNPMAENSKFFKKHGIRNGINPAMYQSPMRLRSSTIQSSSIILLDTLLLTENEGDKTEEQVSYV

IC50 [1] | IC50 [5] | IC50 [9] | Compound | Ki [2] | Ratio Ki [3] | Ki [4] | Ratio Ki [6] | Ki [7] | Ratio Ki [8]
1.23 µM | 0.161 µM | 0.137 µM | COc1cc2c(cc1OC)-c1c(OC)c(OCc3ccccc3)cc3c1[C@H](C2)N(C)CC3 | 0.022 µM | 5.5 | 0.048 µM | 0.5 | 0.004 µM | 12
 |  |  | CCCCOc1cc2c3c(c1OC)-c1cc(OC)c(OC)cc1C[C@@H]3N(C)CC2 | 0.187 µM | 4 | 0.015 µM | 12.5 | 0.047 µM | 0.3
 |  |  | CCCC(C)Oc1cc2c3c(c1OC)-c1cc(OC)c(OC)cc1C[C@@H]3N(C)CC2 (some centres undefined) | 0.244 µM | 6.6 | 0.025 µM | 9.8 | 0.037 µM | 0.7
 |  |  | COc1cc2c(cc1OCC1CC1)C[C@H]1c3c(cc(OC)c(OC)c3-2)CCN1C |  | 1.1 | 0.029 µM | 20.1 | 0.533 µM | 0.05
 |  |  | COc1cc2c(cc1OC)-c1c(OC)c(OC3CCCCC3)cc3c1[C@H](C2)N(C)CC3 | 0.534 µM | 4.7 | 0.092 µM | 5.8 | 0.113 µM | 0.8
 |  |  | CCC(C)Oc1cc2c3c(c1OC)-c1cc(OC)c(OC)cc1C[C@@H]3N(C)CC2 (some centres undefined) | 0.293 µM | 3.1 | 0.096 µM | 3.1 | 0.094 µM | 1
 |  |  | CCCCCCOc1cc2c(cc1OC)-c1c(OC)c(OC)cc3c1[C@H](C2)N(C)CC3 |  | 0.9 | 0.053 µM | 10.8 | 0.614 µM | 0.1
 |  |  | CCCCCCOc1cc2c3c(c1OC)-c1cc(OC)c(OC)cc1C[C@@H]3N(C)CC2 | 0.213 µM | 2.6 | 0.105 µM | 2 | 0.082 µM | 1
 |  |  | Cn1ccc2cc3c(cc21)CCN3C(=O)Nc1cccnc1 |  |  | 0.02 µM |  |  | 
 |  |  | CCCCC(C)Oc1cc2c3c(c1OC)-c1cc(OC)c(OC)cc1C[C@@H]3N(C)CC2 (some centres undefined) | 0.155 µM | 2.2 | 0.082 µM | 1.9 | 0.072 µM | 1
 |  |  | Cc1nc2sccn2c(=O)c1CCN1CCC(=C(c2ccc(F)cc2)c2ccc(F)cc2)CC1 [RITANSERIN] |  |  |  |  | 0.0008 µM | 
 |  |  | CCCCOc1cc2c(cc1OC)-c1c(OC)c(OC)cc3c1[C@H](C2)N(C)CC3 |  | 0.6 | 0.056 µM | 4.8 | 0.45 µM | 0.1
 |  |  | COc1cc2c(cc1OC)-c1c(OC)c(OC(C)C)cc3c1[C@H](C2)N(C)CC3 | 0.587 µM | 3.1 | 0.156 µM | 3.8 | 0.19 µM | 0.8
 |  |  | COc1cc2c(cc1OC)-c1c(OC)c(OCC3CC3)cc3c1[C@H](C2)N(C)CC3 | 0.238 µM | 2.3 | 0.04 µM | 6 | 0.104 µM | 0.4
 |  |  | CCCC(C)Oc1cc2c(cc1OC)-c1c(OC)c(OC)cc3c1[C@H](C2)N(C)CC3 (some centres undefined) |  | 1.1 | 0.01 µM | 24.4 | 0.219 µM | 0.05
 |  |  | CCCCC(C)Oc1cc2c(cc1OC)-c1c(OC)c(OC)cc3c1[C@H](C2)N(C)CC3 (some centres undefined) |  | 1.6 | 0.033 µM | 13.5 | 0.274 µM | 0.1

IC50 [1] | IC50 [5] | IC50 [9] | Compound | Ki [2] | Ratio Ki [3] | Ki [4] | Ratio Ki [6] | Ki [7] | Ratio Ki [8]
 |  |  | C=CCOc1cc2c3c(c1OC)-c1cc(OC)c(OC)cc1C[C@@H]3N(C)CC2 | 0.101 µM | 2 | 0.016 µM | 6.3 | 0.05 µM | 0.3
 |  |  | COc1cc2c(cc1OC1CCCCC1)C[C@H]1c3c(cc(OC)c(OC)c3-2)CCN1C |  | 0.9 | 0.053 µM | 10.8 | 0.614 µM | 0.1
 |  |  | COc1cc2c(cc1OC(C)C)C[C@H]1c3c(cc(OC)c(OC)c3-2)CCN1C |  | 1.3 | 0.045 µM | 16.7 | 0.559 µM | 0.1
 |  |  | COc1cc2c(cc1OC)-c1c(OC)c(OCCF)cc3c1[C@H](C2)N(C)CC3 |  |  | 0.629 µM |  | 1.13 µM | 0.6
 |  |  | CCOc1cc2c3c(c1OC)-c1cc(OC)c(OC)cc1C[C@@H]3N(C)CC2 | 0.512 µM | 1.5 | 0.153 µM | 3.3 | 0.34 µM | 0.5
 |  |  | CCCCCOc1cc2c(cc1OC)-c1c(OC)c(OC)cc3c1[C@H](C2)N(C)CC3 |  | 0.5 | 0.057 µM | 4.2 | 0.504 µM | 0.1
 |  |  | COc1cc2c(cc1OCCF)C[C@H]1c3c(cc(OC)c(OC)c3-2)CCN1C |  | 2.1 | 0.048 µM | 24.1 | 0.542 µM | 0.1
3 µM | 0.436 µM | 0.162 µM | COc1cc2c(cc1OC)-c1c(OC)c(OCc3ccc(Br)cc3)cc3c1[C@H](C2)N(C)CC3 | 0.02 µM | 0.9 | 0.359 µM | 0.06 | 0.023 µM | 16
 |  |  | CCC(C)Oc1cc2c(cc1OC)-c1c(OC)c(OC)cc3c1[C@H](C2)N(C)CC3 (some centres undefined) |  | 1.6 | 0.022 µM | 17.1 | 0.238 µM | 0.1
 |  |  | COc1cc2c(cc1OC)-c1c(OC)c(OC)cc3c1[C@H](C2)N(C)CC3 [GLAUCINE] |  | 2.9 | 0.119 µM | 8.1 | 0.328 µM | 0.4
 |  |  | CCCCCOc1cc2c3c(c1OC)-c1cc(OC)c(OC)cc1C[C@@H]3N(C)CC2 | 0.138 µM | 3.5 | 0.047 µM | 2.9 | 0.04 µM | 1
 |  |  | CCOc1cc2c(cc1OC)-c1c(OC)c(OC)cc3c1[C@H](C2)N(C)CC3 |  | 1.9 | 0.08 µM | 10.2 | 0.425 µM | 0.2
 |  |  | COc1cc2c(cc1OCc1ccc(Br)cc1)C[C@H]1c3c(cc(OC)c(OC)c3-2)CCN1C |  | 1.5 | 0.042 µM | 10 | 0.281 µM | 0.1
 |  |  | COc1cc2c(cc1OCc1ccccc1)C[C@H]1c3c(cc(OC)c(OC)c3-2)CCN1C |  | 1.2 | 0.192 µM | 1.1 | 0.179 µM | 1.1
 |  |  | C=CCOc1cc2c(cc1OC)-c1c(OC)c(OC)cc3c1[C@H](C2)N(C)CC3 |  | 0.7 | 0.055 µM | 7 | 0.543 µM | 0.1
